Read-outs that look alike come from different tables or passages of the source.
Assays:
Type in all cases: cell-based, human
Target C = test: HiBiT protein abundance assay, Target C (Promega Nano-Glo HiBiT Lytic Detection System, knock-in K562 cell line); details: Homo sapiens, K562, 24 h, HiBiT K562 cell line, 24 hours, top dose 10 μM; read-out: Effect on protein abundance, Target C (IC50 category)
In short: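 Knock-in K562 cells carrying HiBiT-tagged Target C, 10,000 per well, treated 24 h at 37 °C with 10-point threefold dilutions (top 10 μM final, ≤0.25% DMSO). Lytic HiBiT luminescence read; response normalised to unmodified K562 and DMSO controls, four-parameter fit interpolated at 50% for IC50.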

MYB = test: HiBiT protein abundance assay, MYB HiBiT K562 cell line; details: HiBiT K562 cell line, 24 hours, top dose 10 μM; read-out: Effect on protein abundance, MYB (IC50 category)
In short: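 K562 knock-in lines with endogenous HiBiT-tagged target, 10,000 cells/well in IMDM + FBS, treated 24 h at 37° C with 10-point 3-fold dilutions (top 10 μM final; DMSO ≤0.25%). Lytic Nano-Glo HiBiT luminescence normalized to untagged K562 baseline and DMSO controls; IC50 = concentration giving 50% abundance via four-parameter fit.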

MYB mRNA = test: RT-qPCR splicing assay, MYB canonical junction (CJ) and alternative junction (AJ) mRNA; details: Homo sapiens; for AC50: increase in MYB alternative junction (AJ) mRNA, read-out: MYB AJ AC50
In short: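 A673 cells (normalized to PPIA) or K562 cells (normalized to GAPDH or GUSB) were treated 24 h at 37 °C with an 11-point 3-fold dilution series, top 10 uM, DMSO ≤0.25%. Cell lysates went to one-step RT-qPCR measuring canonical- and alternative-junction MYB or HTT transcripts.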

[1] = Table 5 panel, canonical junction qPCR, compound concentration having 50% response in CJ decrease, read-out: MYB IC50 (decrease in CJ mRNA levels)
[2] = decrease in MYB canonical junction (CJ) mRNA, RT-qPCR, read-out: MYB CJ IC50

| SMILES | IC50 (Target C) [nM] | IC50 (MYB) [nM] | IC50 (MYB mRNA; [1]) [nM] | IC50 (MYB mRNA; [2]) [nM] | AC50 (MYB mRNA; RT-qPCR) [nM] |
| --- | --- | --- | --- | --- | --- |
| Cc1cn2cc(-c3cc(F)c4c(=O)n([C@@H]5CCNC5)ccc4c3)cc(F)c2n1 (single isomer, unassigned) [Compound 395] | 1000 to 10000 | 100 to 1000 | < 100 | 100 to 1000 | < 100 |
| Cc1cn2cc(-c3cc(F)c4c(=O)n([C@H]5CCNC5)ccc4c3)cc(F)c2n1 (single isomer, unassigned) [Compound 396] | 100 to 1000 | 100 to 1000 | < 100 | < 100 | < 100 |
| Cc1cn2cc(-c3ccc4c(=O)n([C@@H]5CCCNC5)ccc4c3)cc(F)c2n1 (single isomer, unassigned) [Compound 403] | 1000 to 10000 | 100 to 1000 | 1000 to 10000 | 100 to 1000 | 1000 to 10000 |
| Cc1cn2nc(-c3cc(F)c4c(=O)n([C@@H]5CCNC6(CC6)C5)ccc4c3)cc(C)c2n1 (single isomer, unassigned) [Compound 425] | < 100 | < 100 | < 100 | < 100 | < 100 |
| Cc1cn2nc(-c3cc(F)c4c(=O)n([C@H]5CCNC6(CC6)C5)ccc4c3)cc(C)c2n1 (single isomer, unassigned) [Compound 426] | < 100 | < 100 | < 100 | < 100 | < 100 |
| Cc1cn2nc(-c3ccc4c(=O)n([C@@H]5CCNC6(CC6)C5)ncc4c3)cc(C)c2n1 (stereo in doubt) [Compound 368, 2-[(7R)-4-azaspiro[2.5]octan-7-yl]-6-{2,8-dimethylimidazo[1,2-b]pyridazin-6-yl}phthalazin-1-one] | < 100 | < 100 | 100 to 1000 | 100 to 1000 | 100 to 1000 |
| Cc1cn2nc(-c3cc(F)c4c(=O)n(C5CCNC5)ccc4c3)cc(C)c2n1 (stereo in doubt) [Compound 382, (R)-6-(2,8-dimethylimidazo[1,2-b]pyridazin-6-yl)-8-fluoro-2-(pyrrolidin-3-yl)isoquinolin-1(2H)-one] | 1000 to 10000 | 100 to 1000 | < 100 | 100 to 1000 | < 100 |
| Cc1cn2nc(-c3cc(F)c4c(=O)n(C5CCNC5)ccc4c3)cc(C)c2n1 (stereo in doubt) [Compound 392, (S)-6-(2,8-dimethylimidazo[1,2-b]pyridazin-6-yl)-8-fluoro-2-(pyrrolidin-3-yl)isoquinolin-1(2H)-one] | 1000 to 10000 | 100 to 1000 | < 100 | < 100 | < 100 |
| Cc1cn2nc(-c3cc(C)c4c(=O)n(C5CCNC6(CC6)C5)ccc4c3)cc(C)c2n1 (stereo in doubt) [Compound 397, (S)-6-(2,8-dimethylimidazo[1,2-b]pyridazin-6-yl)-8-methyl-2-(4-azaspiro[2.5]octan-7-yl)isoquinolin-1(2H)-one] | < 100 | < 100 | 100 to 1000 | < 100 | 100 to 1000 |
| Cc1cn2nc(-c3cc(C)c4c(=O)n(C5CCNC6(CC6)C5)ccc4c3)cc(C)c2n1 (stereo in doubt) [Compound 398, (R)-6-(2,8-dimethylimidazo[1,2-b]pyridazin-6-yl)-8-methyl-2-(4-azaspiro[2.5]octan-7-yl)isoquinolin-1(2H)-one] | < 100 | < 100 | < 100 | < 100 | < 100 |
| Cc1cn2nc(-c3ccc4c(=O)n(C5CCCNC5)ccc4c3)cc(C)c2n1 (stereo in doubt) [Compound 410, 6-{2,8-dimethylimidazo[1,2-b]pyridazin-6-yl}-2-[(3S)-piperidin-3-yl]isoquinolin-1-one] | 1000 to 10000 | 100 to 1000 | 100 to 1000 | 100 to 1000 | 100 to 1000 |
| Cc1cn2nc(-c3ccc4c(=O)n(C5CCCNC5)ccc4c3)cc(C)c2n1 (stereo in doubt) [Compound 411, 6-{2,8-dimethylimidazo[1,2-b]pyridazin-6-yl}-2-[(3R)-piperidin-3-yl]isoquinolin-1-one] | 1000 to 10000 | 1000 to 10000 | 1000 to 10000 | 1000 to 10000 | 1000 to 10000 |
| Cc1cn2cc(-c3cc(F)c4c(=O)n(C5CCOC5)cnc4c3)cc(C#N)c2n1 (stereo in doubt) [Compound 499, (R)-6-(5-fluoro-4-oxo-3-(tetrahydrofuran-3-yl)-3,4-dihydroquinazolin-7-yl)-2-methylimidazo[1,2-a]pyridine-8-carbonitrile] | 100 to 1000 | 100 to 1000 | 100 to 1000 | 100 to 1000 | 100 to 1000 |
| Cc1cn2cc(-c3cc(F)c4c(=O)n(C5CCOC5)cnc4c3)cc(C#N)c2n1 (stereo in doubt) [Compound 500, (S)-6-(5-fluoro-4-oxo-3-(tetrahydrofuran-3-yl)-3,4-dihydroquinazolin-7-yl)-2-methylimidazo[1,2-a]pyridine-8-carbonitrile] | 100 to 1000 | 100 to 1000 | 100 to 1000 | 100 to 1000 | 100 to 1000 |
| Cn1cc2cc(-n3cnc4cc(C5=CC6CCC(C5)N6)ccc4c3=O)ccc2n1 (stereo not shown) [Compound 160] | > 10000 | > 10000 | > 10000 | > 10000 | > 10000 |
| CN1C2C=C(c3ccc4c(=O)n(-c5ccc6nn(C)cc6c5)cnc4c3)CC1CC2 (stereo not shown) [Compound 161] | > 10000 | > 10000 | > 10000 | > 10000 | > 10000 |
| Cn1cc2cc(-n3cnc4cc(NC5CCNCC5)ccc4c3=O)ccc2n1 [Compound 162] | > 10000 | > 10000 | > 10000 | > 10000 | > 10000 |
| CN1CCC(Nc2ccc3c(=O)n(-c4ccc5nn(C)cc5c4)cnc3c2)CC1 [Compound 163] | > 10000 | > 10000 | 1000 to 10000 | > 10000 | 1000 to 10000 |
| Cn1cc2cc(-n3cnc4cc(C5CCNCC5)ccc4c3=O)ccc2n1 [Compound 172] | > 10000 | > 10000 | > 10000 | > 10000 | > 10000 |
| Cc1cc(-c2ccc3c(=O)n(C4CCN(C)CC4)cnc3n2)cc2cn(C)nc12 [Compound 173] | > 10000 | > 10000 | > 10000 | > 10000 | > 10000 |
| Cc1cc(-c2ccc3c(=O)n(C4CCNCC4)cnc3c2)cc2cn(C)nc12 [Compound 174] | 100 to 1000 | < 100 | 100 to 1000 | 100 to 1000 | 100 to 1000 |
| Cc1cn2cc(-c3cc(N)c4c(=O)n(C5CCNCC5)cnc4c3)cc(C#N)c2n1 [Compound 364, 6-[5-amino-4-oxo-3-(piperidin-4-yl)quinazolin-7-yl]-2-methylimidazo[1,2-a]pyridine-8-carbonitrile] | > 10000 | > 10000 | > 10000 | > 10000 | > 10000 |
| Cn1cc2c(n1)CCN(c1cc(F)c3c(=O)n(C4CCNCC4)cnc3c1)C2 [Compound 365, 5-fluoro-7-(2-methyl-2,4,6,7-tetrahydro-5H-pyrazolo[4,3-c]pyridin-5-yl)-3-(piperidin-4-yl)quinazolin-4(3H)-one] | > 10000 | 1000 to 10000 | 1000 to 10000 | 1000 to 10000 | 1000 to 10000 |
